Results: patent US20120028917A1, “Use Of N-(4-((3-(2-Amino-4-Pyrimidinyl)-2-Pyridinyl)Oxy)Phenyl)-4-(4-Methyl-2-Thienyl)-1-Phthalazinamine In The Treatment Of Antimitotic Agent Resistant Cancer” (Amgen Inc., priority 2009, published 2012)
Read-outs that look alike come from different tables or passages of the source.

Assays:
[1] = test system: MDA-MB-231 PTX paclitaxel resistant; assay: p-histone H3 fluorescence-based cell imaging assay; design: species or system human; conditions: for EC50: MDA-MB-231-PTX*, Breast, P-gp+, read-out: Cellular EC50; for IC50: MDA-MB-231 PTX paclitaxel resistant, P-gp +
Protocol: (§1) All high-content cell assays were performed on an ArrayScan VTi HCS Reader (Cellomics). Tumor cell lines were treated with AMG 900, AZD1152, MK-0457, or PHA-739358 (concentration range varied based on potency). The cells were prepared for intracellular staining with an anti-p-histone H3 Ser^10 antibody as previously described (1). Detection was performed with an anti-rabbit IgG-alexa-568 antibody and DAPI. The cellular levels of p-histone H3 were analyzed using Target Activation V2 algorithm (Cellomics) to determine the percentage of positive cells. For the imaging assays, the concentration-response curves and corresponding IC50 and EC50 values were calculated using the percentage of cells affected versus the DMSO control.

MDA-MB-231 parental = assay: p-histone H3 fluorescence-based cell imaging assay; design: species or system human; conditions: P-gp −
Protocol: as §1

MES-SA parental = assay: p-histone H3 fluorescence-based cell imaging assay; design: species or system human; conditions: P-gp −
Protocol: as §1

[2] = test system: MES-SA-Dx5 doxorubicin resistant; assay: p-histone H3 fluorescence-based cell imaging assay; design: species or system human; conditions: for EC50: MES-SA Dx5*, Uterine, P-gp+, read-out: Cellular EC50; for IC50: MES-SA-Dx5 doxorubicin resistant, P-gp +
Protocol: as §1

[3] = test system: NCI-H460 PTX paclitaxel resistant; assay: p-histone H3 fluorescence-based cell imaging assay; design: species or system human; conditions: for EC50: NCI-H460-PTX*, Lung, P-gp+, read-out: Cellular EC50; for IC50: NCI-H460 PTX paclitaxel resistant, P-gp +
Protocol: as §1

NCI-H460 parental = assay: p-histone H3 fluorescence-based cell imaging assay; design: species or system human; conditions: P-gp −
Protocol: as §1

RPMI8226 = assay: ≧4N DNA content assay (flow cytometry); format: cell-based, human
Protocol: (§2) Tumor cells were treated with AMG 900, AZD1152, MK-0457, or PHA-739358 (range concentration varied based on potency) for 24 hours and processed for cell-cycle analysis (DNA staining only) as previously described (1). Cells were analyzed on a LSRII flow cytometer using BD FACS Diva software. The concentration-response curves and corresponding EC50 values were calculated using the percentage of cells with ≧4N DNA content versus the DMSO control.

U226-B1 = assay: ≧4N DNA content assay (flow cytometry); format: cell-based, human; conditions: U226-B1, BCRP −, 24 hours
Protocol: as §2

HCT15 = assay: Cellular EC50, additional cell lines (Table 6-B); format: cell-based, human; conditions: P-gp+
Protocol: as §1, §2

MCF-7 = assay: Cellular EC50, additional cell lines (Table 6-B); format: cell-based, human; conditions: MCF-7, Breast
Protocol: as §1, §2

769P = assay: Cellular EC50, additional cell lines (Table 6-B); format: cell-based; conditions: Homo sapiens, Kidney, P-gp+
Protocol: as §1, §2

SNU499 = assay: Cellular EC50, additional cell lines (Table 6-B); format: cell-based; conditions: Homo sapiens, Liver, P-gp+
Protocol: as §1, §2

HCT116 parental = assay: ≧4N DNA content assay (FIG. 6-A); format: cell-based; conditions: Homo sapiens, HCT-116, 24 hours, read-out: cellular ≧4N DNA content EC50
Protocol: as §2
(§3) HCT116 cell lines were treated with increasing concentrations of AMG 900 or AZD1152 for 24 hours. Flow cytometry was used to assess the accumulation of cells with ≧4N DNA content expressed as a percentage of the DMSO-treated control (POC). The concentration-response curves and calculated EC50 values were determined from two independent experiments (bars, ±SD).

HCT116 AZD1152-resistant [4] = assay: ≧4N DNA content assay (FIG. 6-A); format: cell-based; conditions: Homo sapiens, HCT-116; HCT116 AZD1152-resistant subline; 24 hours; read-out: cellular ≧4N DNA content EC50
Protocol: Tumor cell lines were obtained from the American Type Culture Collection (ATCC) unless otherwise specified. The MDA-MB-231-PTX and NCI-H460-PTX cell lines were established by growing the cells in the presence of increasing concentrations of paclitaxel over a period of 6 months. The HCT116 AZD1152-resistant cell line was established by growing the cells in the presence of AZD1152 at 80 nmol/L.
as §2, §3

HCT116 AZD1152-resistant [5] = assay: Colony formation assay (FIG. 6-B); format: cell-based, human; conditions: HCT116 variant subline, at 50 nmol/L
Protocol: Tumor cell lines were obtained from the American Type Culture Collection (ATCC) unless otherwise specified. The MDA-MB-231-PTX and NCI-H460-PTX cell lines were established by growing the cells in the presence of increasing concentrations of paclitaxel over a period of 6 months. The HCT116 AZD1152-resistant cell line was established by growing the cells in the presence of AZD1152 at 80 nmol/L. Tumor cells were treated with AMG 900, paclitaxel or AZD1152 (0.5, 5, 50 nmol/L) for 48 hours, washed twice with complete media, and cells were re-plated at a density of 5000 cells per well in drug-free complete media. Cells were grown until the DMSO control wells were confluent. Cells were stained with crystal violet dye (Sigma), washed with distilled water, and imaged using a digital scanner (Hewlett-Packard). Colony formation assay was performed with HCT116 cell lines (parental and AZD1152-resistant). Cells were treated with DMSO, AMG 900, AZD1152, or paclitaxel at the indicated concentrations for 48 hours and re-plated in complete media lacking the inhibitor. After the DMSO-treated cells reached confluence, the cells were stained with crystal violet and imaged (duplicate wells).

[6] = Homo sapiens, RPMI-8226, RPMI8226, BCRP +, 24 hours, read-out: ≧4N DNA Content assay, EC50 value
[7] = Homo sapiens, RPMI-8226**, Multiple Myeloma, P-gp− and/or BCRP+, read-out: Cellular EC50

Row | Structure (SMILES) | EC50 ([1]; Homo sapiens) [nM] | IC50 ([1]; Homo sapiens) [nM] | IC50 (MDA-MB-231 parental; Homo sapiens) [nM] | IC50 (MES-SA parental; Homo sapiens) [nM] | EC50 ([2]; Homo sapiens) [nM] | IC50 ([2]; Homo sapiens) [nM] | EC50 ([3]; Homo sapiens) [nM] | IC50 ([3]; Homo sapiens) [nM] | IC50 (NCI-H460 parental; Homo sapiens) [nM] | EC50 (RPMI8226; [6]) [nM] | EC50 (RPMI8226; [7]) [nM] | EC50 (U226-B1; Homo sapiens) [nM] | EC50 (HCT15; Homo sapiens, HCT-15, Colon) [nM] | EC50 (MCF-7; Homo sapiens, MCF7) [nM] | EC50 (769P) [nM] | EC50 (SNU499) [nM] | further results
1 | Cc1cc(Nc2cc(N3CCN(C)CC3)nc(Sc3ccc(NC(=O)C4CC4)cc3)n2)n[nH]1 [MK-0457] | – | – | – | – | – | – | – | – | – | – | – | – | – | – | – | – | EC50 [1]: 277 nM; IC50 [1]: 277 nM; IC50 (MDA-MB-231 parental): 43 nM; IC50 (MES-SA parental): 51 nM; EC50 [2]: > 1250 nM; IC50 [2]: > 1250 nM; EC50 [3]: 468 nM; IC50 [3]: 468 nM; IC50 (NCI-H460 parental): 123 nM; EC50 (RPMI8226; RPMI8226, BCRP +, 24 hours, read-out: ≧4N DNA Content assay, EC50 value): 162 nM; EC50 (RPMI8226; RPMI-8226**, Multiple Myeloma, P-gp− and/or BCRP+, read-out: Cellular EC50): 162 nM; EC50 (U226-B1): 46 nM; EC50 (HCT15; Colon): 908 nM; EC50 (MCF-7): 27 nM
2 | CCN(CCCOc1ccc2c(Nc3cc(CC(=O)Nc4cccc(F)c4)n[nH]3)ncnc2c1)CCOP(=O)(O)O [AZD1152] | > 500 | > 500 | 16 | 51 | > 500 | > 500 | > 500 | > 500 | 131 | 865 | 865 | 12 | > 625 | 11 | 703 | > 1250 | EC50 (HCT116 parental): 34 nM; EC50 (HCT116 AZD1152-resistant [4]): 672 nM; sensitivity in colony formation (HCT116 AZD1152-resistant [5]): insensitive
3 | CO[C@@H](C(=O)N1Cc2n[nH]c(NC(=O)c3ccc(N4CCN(C)CC4)cc3)c2C1)c1ccccc1 [PHA-739358] | > 1250 | > 1250 | 49 | 113 | > 1250 | > 1250 | > 1250 | > 1250 | 510 | > 1250 | > 1250 | 67 | > 1250 | 68 | > 1250 | > 1250 | –
